Measured values as given in patent publication US20230061417A1, “THIENOPYRIMIDINE DERIVATIVES AS LPA RECEPTOR 2 INHIBITORS” (CHIESI FARMACEUTICI S.P.A., priority 2019, published 2023).

Target: T1, human recombinant LPA2 (Homo sapiens, UniProt Q9HBW0)
T1 construct: expressed in transfected cells; host or cells: CHO (CHO-hLPA2 cell line)
Assay: FLIPR calcium mobilization assay, LPA2 antagonism in CHO-hLPA2 cells
Assay type: cell-based
Details: human recombinant LPA2 in CHO cells, LPA EC80 stimulation, 30 min pre-incubation; read-out: LPA2 IC50
Method: The effectiveness of compounds of the present invention as LPA2 antagonist can be determined at the human recombinant LPA2 expressed in CHO cells, using a FLIPR assay in 384 well format.
CHO-hLPA2 cell lines are cultured in a humidified incubator at 5% CO2 in DMEM/F-12 (1:1) MIXTURE with 2 mM Glutamax, supplemented with 10% of Foetal Bovine Serum, 1 mM Sodium Pyruvate, 11 mM Hepes and 1× Penicillin/Streptomycin. CHO hLPA2 cells are seeded into black walled clear-bottom 384-well plates (#781091, Greiner Bio-One GmbH) at a density of 7,500 cells per well in 50 μl culture media and grown overnight in a 37° C. humidified CO2-incubator. Serial dilutions (1:3 or 1:4, 11 points CRC) of compounds are performed in 100% DMSO at 200× the final concentration. The compounds are diluted 1:50 prior to the experiment with Assay Buffer (20 mM HEPES, 145 mM NaCl, 5 mM KCl, 5.5 mM glucose, 1 mM MgCl2 and 2 mM CaCl2, pH 7.4 containing 0.01% Pluronic F-127) to obtain a solution corresponding to […] the final concentration in the assay (4×, 2% DMSO). The final concentration of DMSO in the assay will be 0.5% in each well. Medium is removed by aspiration and cells are then incubated with 30 μl of a loading solution containing 5 μM of the cytoplasmic Ca2+ indicator Cal-520 AM in Assay Buffer containing 2.5 mM probenecid for 30 min at 37° C. incubator (cell loading). The loaded cell plates are transferred into the FLIPR instrument and calcium responses are monitored during the on-line addition protocols. For testing of compounds, after the cell loading, 10 μl/well of 4× antagonists' solution was added onto the cells. After 30 min pre-incubation (at 37° C.), 10 μl/well of 5× concentrated LPA EC80 was added and Ca2+ mobilization responses was followed during the on-line addition protocol. Intracellular peak fluorescence values subtracted by baseline fluorescence are exported and analysed to determine IC50 values, respectively. The calcium response is expressed as percentage of the maximal inhibition of the EC80 agonist response.
The raw data (peak height expressed as relative fluorescence units) are normalized and transformed into “percent of inhibition”. Curve fitting and pIC50 (−Log IC50) estimations are carried out using a four-parameter logistic model using XLfit Software.

T1 sequence (Q9HBW0 whole entry): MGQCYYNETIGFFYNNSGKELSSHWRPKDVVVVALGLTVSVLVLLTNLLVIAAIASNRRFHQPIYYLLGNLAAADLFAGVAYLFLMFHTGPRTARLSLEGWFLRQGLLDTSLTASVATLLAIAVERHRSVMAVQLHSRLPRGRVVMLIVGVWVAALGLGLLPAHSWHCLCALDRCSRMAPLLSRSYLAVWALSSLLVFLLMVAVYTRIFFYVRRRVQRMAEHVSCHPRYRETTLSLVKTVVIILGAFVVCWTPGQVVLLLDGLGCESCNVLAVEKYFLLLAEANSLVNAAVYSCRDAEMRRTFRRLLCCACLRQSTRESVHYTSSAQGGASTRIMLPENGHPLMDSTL

IC50 [nM] | SMILES
10 to 100 | COC(=O)Nc1nc(C)c(S(=O)(=O)N2CCN(C[C@H](C)Nc3ncnc4c(C(F)(F)F)csc34)CC2)s1 [Example 1, methyl N-[4-methyl-5-({4-[(2S)-2-{[7-(trifluoromethyl)thieno[3,2-d]pyrimidin-4-yl]amino}propyl]piperazin-1-yl}sulfonyl)-1,3-thiazol-2-yl]carbamate]
< 1000 | COC(=O)c1ccc(S(=O)(=O)N2CCN(C[C@H](C)Nc3ncnc4c(C)csc34)CC2)s1 [Example 4, Methyl 5-({4-[(2S)-2-({7-methylthieno[3,2-d]pyrimidin-4-yl}amino)propyl]piperazin-1-yl}sulfonyl)thiophene-2-carboxylate]
< 1000 | Cc1nc(-c2ccc(S(=O)(=O)N3CCN(C[C@H](C)Nc4ncnc5c(C)csc45)CC3)cc2)cs1 [Example 5, 7-methyl-N-[(2S)-1-{4-[4-(2-methyl-1,3-thiazol-4-yl)benzenesulfonyl]piperazin-1-yl}propan-2-yl]thieno[3,2-d]pyrimidin-4-amine]
< 1000 | CC(=O)Nc1cc(F)c(S(=O)(=O)N2CCN(C[C@H](C)Nc3ncnc4c(C)csc34)CC2)cc1C [Example 6, N-[5-fluoro-2-methyl-4-({4-[(2S)-2-({7-methylthieno[3,2-d]pyrimidin-4-yl}amino)propyl]piperazin-1-yl}sulfonyl)phenyl]acetamide]
< 1000 | Cc1csc2c(N[C@@H](C)CN3CCN(S(=O)(=O)c4cccc(Br)c4)CC3)ncnc12 [Example 7, N-[(2S)-1-[4-(3-bromobenzenesulfonyl)piperazin-1-yl]propan-2-yl]-7-methylthieno[3,2-d]pyrimidin-4-amine]
< 1000 | Cc1csc2c(N[C@@H](C)CN3CCN(S(=O)(=O)c4ccc(F)c(Cl)c4)CC3)ncnc12 [Example 9, N-[(2S)-1-[4-(3-chloro-4-fluorobenzenesulfonyl)piperazin-1-yl]propan-2-yl]-7-methylthieno[3,2-d]pyrimidin-4-amine]
< 1000 | Cc1csc2c(N[C@@H](C)CN3CCN(S(=O)(=O)c4cc(Br)c(Cl)s4)CC3)ncnc12 [Example 10, N-[(2S)-1-{4-[(4-bromo-5-chlorothiophen-2-yl)sulfonyl]piperazin-1-yl}propan-2-yl]-7-methylthieno[3,2-d]pyrimidin-4-amine]
< 1000 | Cc1csc2c(N[C@@H](C)CN3CCN(S(=O)(=O)c4ccc(Br)c(Cl)c4)CC3)ncnc12 [Example 11, N-[(2S)-1-[4-(4-bromo-3-chlorobenzenesulfonyl)piperazin-1-yl]propan-2-yl]-7-methylthieno[3,2-d]pyrimidin-4-amine]
< 1000 | COC(=O)c1cc(Br)c(S(=O)(=O)N2CCN(C[C@H](C)Nc3ncnc4c(C)csc34)CC2)s1 [Example 13, methyl 4-bromo-5-({4-[(2S)-2-({7-methylthieno[3,2-d]pyrimidin-4-yl}amino)propyl]piperazin-1-yl}sulfonyl)thiophene-2-carboxylate]
< 1000 | Cc1csc2c(N[C@@H](C)CN3CCN(S(=O)(=O)c4cnc(-c5ccccc5)nc4)CC3)ncnc12 [Example 15, 7-methyl-N-[(2S)-1-{4-[(2-phenylpyrimidin-5-yl)sulfonyl]piperazin-1-yl}propan-2-yl]thieno[3,2-d]pyrimidin-4-amine]
< 1000 | Cc1csc2c(N[C@@H](C)CN3CCN(S(=O)(=O)c4ccc(NC(=O)c5ccncc5)cc4)CC3)ncnc12 [Example 16, N-[4-({4-[(2S)-2-({7-methylthieno[3,2-d]pyrimidin-4-yl}amino)propyl]piperazin-1-yl}sulfonyl)phenyl]pyridine-4-carboxamide]
< 1000 | Cc1csc(-c2ccc(S(=O)(=O)N3CCN(C[C@H](C)Nc4ncnc5c(C)csc45)CC3)cc2)n1 [Example 17, 7-methyl-N-[(2S)-1-{4-[4-(4-methyl-1,3-thiazol-2-yl)benzenesulfonyl]piperazin-1-yl}propan-2-yl]thieno[3,2-d]pyrimidin-4-amine]
< 1000 | CC(=O)Nc1cc(F)c(S(=O)(=O)N2CCN(C[C@H](C)Nc3ncnc4c(C)csc34)CC2)cc1Cl [Example 18, N-[2-chloro-5-fluoro-4-({4-[(2S)-2-({7-methylthieno[3,2-d]pyrimidin-4-yl}amino)propyl]piperazin-1-yl}sulfonyl)phenyl]acetamide]
< 1000 | CCC(=O)Nc1nc(C)c(S(=O)(=O)N2CCN(C[C@H](C)Nc3ncnc4c(C)csc34)CC2)s1 [Example 19, N-[4-methyl-5-({4-[(2S)-2-({7-methylthieno[3,2-d]pyrimidin-4-yl}amino)propyl]piperazin-1-yl}sulfonyl)-1,3-thiazol-2-yl]propanamide]
< 1000 | COC(=O)Nc1nc(C)c(S(=O)(=O)N2CCN(C[C@H](C)Nc3ncnc4c(C)csc34)CC2)s1 [Example 20, methyl N-[4-methyl-5-({4-[(2S)-2-({7-methylthieno[3,2-d]pyrimidin-4-yl}amino)propyl]piperazin-1-yl}sulfonyl)-1,3-thiazol-2-yl]carbamate]
< 1000 | Cc1csc2c(N[C@@H](C)CN3CCN(S(=O)(=O)c4ccc(-c5ccno5)s4)CC3)ncnc12 [Example 21, 7-methyl-N-[(2S)-1-(4-{[5-(1,2-oxazol-5-yl)thiophen-2-yl]sulfonyl}piperazin-1-yl)propan-2-yl]thieno[3,2-d]pyrimidin-4-amine]
< 1000 | CC(=O)Nc1ncc(S(=O)(=O)N2CCN(C[C@H](C)Nc3nc(C4CC4)nc4c(C)csc34)CC2)s1 [Example 22, N-[5-({4-[(2S)-2-({2-cyclopropyl-7-methylthieno[3,2-d]pyrimidin-4-yl}amino)propyl]piperazin-1-yl}sulfonyl)-1,3-thiazol-2-yl]acetamide]
< 1000 | Cc1nc2ccc(S(=O)(=O)N3CCN(C[C@H](C)Nc4ncnc5c(C)csc45)CC3)cc2s1 [Example 23, 7-methyl-N-[(2S)-1-{4-[(2-methyl-1,3-benzothiazol-6-yl)sulfonyl]piperazin-1-yl}propan-2-yl]thieno[3,2-d]pyrimidin-4-amine]
< 1000 | CC(=O)N1CCc2cc(S(=O)(=O)N3CCN(C[C@H](C)Nc4ncnc5c(C)csc45)CC3)ccc21 [Example 24, 1-[5-({4-[(2S)-2-({7-methylthieno[3,2-d]pyrimidin-4-yl}amino)propyl]piperazin-1-yl}sulfonyl)-2,3-dihydro-1H-indol-1-yl]ethan-1-one]
< 1000 | Cc1csc2c(N[C@@H](C)CN3CCN(S(=O)(=O)c4cnn(-c5ccc(C(F)(F)F)cn5)c4)CC3)ncnc12 [Example 25, 7-methyl-N-[(2S)-1-[4-({1-[5-(trifluoromethyl)pyridin-2-yl]-1H-pyrazol-4-yl}sulfonyl)piperazin-1-yl]propan-2-yl]thieno[3,2-d]pyrimidin-4-amine]
< 1000 | Cc1nc(NC=O)sc1S(=O)(=O)N1CCN(C[C@H](C)Nc2ncnc3c(C)csc23)CC1 [Example 26, N-[4-methyl-5-({4-[(2S)-2-({7-methylthieno[3,2-d]pyrimidin-4-yl}amino)propyl]piperazin-1-yl}sulfonyl)-1,3-thiazol-2-yl]formamide]
< 1000 | Cc1nc(-c2ccc(S(=O)(=O)N3CCN(C[C@H](C)Nc4ncnc5c(C)csc45)CC3)s2)cs1 [Example 27, 7-methyl-N-[(2S)-1-(4-{[5-(2-methyl-1,3-thiazol-4-yl)thiophen-2-yl]sulfonyl}piperazin-1-yl)propan-2-yl]thieno[3,2-d]pyrimidin-4-amine]
10 to 100 | Cc1noc(-c2ccc(S(=O)(=O)N3CCN(C[C@H](C)Nc4ncnc5c(C)csc45)CC3)s2)c1C [Example 28, N-[(2S)-1-(4-{[5-(3,4-dimethyl-1,2-oxazol-5-yl)thiophen-2-yl]sulfonyl}piperazin-1-yl)propan-2-yl]-7-methylthieno[3,2-d]pyrimidin-4-amine]
< 1000 | Cc1csc2c(N[C@@H](C)CN3CCN(S(=O)(=O)c4ccc(-c5cc(C(F)(F)F)n(C)n5)s4)CC3)ncnc12 [Example 29, 7-methyl-N-[(2S)-1-[4-({5-[1-methyl-5-(trifluoromethyl)-1H-pyrazol-3-yl]thiophen-2-yl}sulfonyl)piperazin-1-yl]propan-2-yl]thieno[3,2-d]pyrimidin-4-amine]
< 1000 | Cc1csc2c(N[C@@H](C)CN3CCN(S(=O)(=O)c4ccc(-c5ccccn5)s4)CC3)ncnc12 [Example 30, 7-methyl-N-[(2S)-1-(4-{[5-(pyridin-2-yl)thiophen-2-yl]sulfonyl}piperazin-1-yl)propan-2-yl]thieno[3,2-d]pyrimidin-4-amine]
